This note sets out measurements from ChEMBL document CHEMBL5726080, “Substituted piperidine compounds and their use as orexin receptor modulators” (2017).

Molecules are shown by their SMILES.

This test can be described thus: Receptor Radioligand Binding Studies: Human Embryonic Kidney 293 cells (HEK293) stably expressing rat orexin 1 receptor (Genebank accession number NM_001525) or Chinese ovary cells (CHO) stably expressing […] were grown to confluency in DMEM (Hyclone, cat #SH30022), 10% FBS, 1×Pen/Strep, 1× sodium pyruvate, 10 mM HEPES, 600 μg/mL G418 and DMEM/F12 (Gibco, Cat #11039), 10% FBS, 1×Pen/Strep, 600 μg/mL G418 media, respectively on 150 cm2 tissue culture plates, washed with 5 mM EDTA in PBS (HyClone Dulbecco's Phosphate Buffered Saline 1× with Calcium and Magnesium, Cat #SH30264.01, hereafter referred to simply as PBS) and scraped into 50 ml tubes. After centrifugation (2K×G, 5 min at 4° C.), the supernatant was aspirated and the pellets frozen and stored at −80° C. Cells were resuspended in PBS in the presence of 1 tablet of protease inhibitor cocktail (Roche, Cat. #11836145001) per 50 mL. Each cell pellet from a 15 cm plate was resuspended in 10 mL, stored on ice, and homogenized for 45 sec prior to addition to the reactions. Competition binding experiments in 96 well polypropylene plates were performed using [3H]-(1-(5-(2-fluoro-phenyl)-2-methyl-thiazol-4-yl)-1-((S)-2-(5-phenyl-(1,3,4)oxadiazol-2-ylmethyl)-pyrrolidin-1-yl)-methanone) (Moraveck Corporation, specific activity=35.3 Ci/mmol), diluted to a 10 nM concentration in PBS (4 nM final). Compounds were solubilized in 100% DMSO (Acros Organics, Cat. #61042-1000) and tested over a range of 7 concentrations (from 0.1 nM to 10 μM). The final concentration of DMSO in the reactions is equal to or less than 0.1%. Total and nonspecific binding was determined in the absence and presence of 10 μM almorexant. The total volume of each reaction is 200 μL (20 μL of diluted compounds, 80 μL of [3H]-(1-(5-(2-fluoro-phenyl)-2-methyl-thiazol-4-yl)-1-((S)-2-(5-phenyl-(1,3,4)oxadiazol-2-ylmethyl)-pyrrolidin-1-yl)-methanone) diluted in PBS and 100 μL of the cell suspension). Reactions were run for 60 min at room temperature and terminated by filtration through GF/C filter plates (PerkinElmer, Cat. #6005174) presoaked in 0.3% polyethylenimine using the cell harvester (PerkinElmer Filtermate). The plates were washed 3 times by aspirating 30 ml PBS through the plates. Plates were dried in 55° C. oven for 60 min, scintillation fluid was added, and the radioactivity was counted on a Topcount (Packard).
For the molecule `Cc1ccc(C(=O)N2CCC[C@@H](Nc3nnc(C(F)(F)F)s3)[C@@H]2C)c(-n2nccn2)n1` (relative stereo), the Ki is more than 10 µM.
For `COc1ccc(C(=O)N2CCC[C@@H](Nc3ccc(C(F)(F)F)cn3)[C@@H]2C)c(Cl)n1` (relative stereo), the Ki was more than 10 µM.
Take `Cc1ccc(C(=O)N2CCC[C@@H](N(C)c3ccc(C(F)(F)F)cn3)[C@@H]2C)c(-n2nccn2)n1` (relative stereo): the Ki is more than 10 µM.
The same measure for `COc1ccc(C(=O)N2CCC[C@@H](Nc3ncc(C(F)(F)F)cn3)[C@@H]2C)c(Cl)n1` (relative stereo): more than 10 µM.
